From patent US20110212913A1, “THERAPEUTIC COMPOSITIONS COMPRISING PHENOLIC ACIDS FOR TREATING CONDITIONS RELATED TO INAPPROPRIATE PLATELET AGGREGATION” (PROVEXIS NATURAL PRODUCTS LIMITED, priority 2008, published 2011)
In brackets after ≈: the same amount, converted by molar mass.

Experiments:
Type in all cases: cell-based, human
[1] = test system: platelet aggregation in platelet-rich plasma, agonist ADP; experiment: ADP-induced platelet aggregation in platelet-rich plasma (aggregometer); details: ADP 10 μmol/L; for IC50: Homo sapiens, Platelet
Experimental: (§1) The experimental protocol described below was devised to determine the IC50 values of compounds isolated as described in 1.1.3. Crude bioassays to evaluate inhibition of platelet aggregation in vitro were performed on some crude extracts (data not shown) to help select fine fractions/compounds identified by HPLC for functional activity. This approach was considered necessary to avoid the need to assay each and ever compound (the would be thousands) in the fruit extracts.
(§2) An IC50 value represents the amount of a compound, in mg, required to inhibit by 50% the platelet aggregation induced under standardised conditions in 1 mL platelet-rich plasma, in comparison with control samples.
(§3) Blood for in vitro studies was collected from drug-free, healthy human volunteers, both male and female, aged 18-60 years, with normal platelet function. Subjects declared that they had not consumed drugs or supplements known to affect platelet function for a minimum of 10 days before providing a blood sample. Blood was collected after single venepuncture to an antecubital vein through siliconized needles into plastic citrated blood collection tubes (Sarstedt Monovettes, final concentration sodium citrate, 13 mmol/L). All blood was maintained at 37° C. from the time of blood sampling.
(§4) Platelet-rich plasma (PRP) was obtained by centrifugation of citrated blood for 15 minutes at 200×g, and was adjusted with platelet-poor plasma to a standard platelet number of 320±20×10^9/L prior to use. PRP was used for platelet function measurements within two hours.
(§5) The following agonists were used for platelet function measurements. Adenosine diphosphate (ADP), final concentration 10 μmol/L; collagen, final concentration 5 mg/L; arachidonic acid, final concentration […] (all from Helena Biosciences, Sunderland, UK); thrombin receptor-activating peptide (TRAP), final concentration […] (Sigma-Aldrich, Poole, UK). Agonists were prepared from stock solutions immediately before use, diluting into warmed physiological saline (0.9% NaCI).
(§6) Individual platelet inhibitors were prepared at a concentration of between 500 g/L and 100 g/L in either physiological saline, ultra-pure methanol or ultra-pure DMSO (Sigma-Aldrich, Poole, UK) and stored frozen until required. Stock solutions were then diluted with physiological saline immediately prior to use.
(§7) 450 μL PRP was incubated with 50 μL diluted inhibitor solution at 37° C. for 10 minutes, in low-retention epindorrfs. Inhibitor solutions were diluted such that the final concentration of methanol or DMSO in the PRP sample never exceeded 2%. Suitable control samples, containing 50 μL physiological saline matched for methanol or DMSO content as appropriate, were incubated simultaneously. For each inhibitor compound, 5 incubation concentrations were used; final concentrations of 0.05 mg/mL, 0.10 mg/mL, 1.00 mg/mL, 5.00 mg/mL and 10 mg/mL were used as standard.
(§8) After incubation with platelet inhibitors, PRP samples were transferred to glass cuvettes and the extent of aggregation induced by either ADP, collagen, TRAP or arachidonic acid was monitored over 10 minutes on a platelet aggregometer (PACKS 4, Helena Biosciences, Sunderland, UK). A control sample was run with each sample set. From the aggregation curves generated, the area under the curve was calculated for each PRP sample, and the inhibition of aggregation achieved at each inhibitor concentration was calculated by comparing the area under the curve for these PRP samples with that of the control sample. The inhibition of aggregation was expressed as % inhibition, compared to control, and from the 6 data points obtained per inhibitor compound, a dose-response curve was constructed. This curve was then used to predict the IC50 value for that inhibitor compound, as shown in 1.2, Results, and FIG. 1.
(§9) For each blood sample obtained, 6-point dose-response curves for 2 different inhibitory compounds could be generated. […]

[2] = test system: platelet aggregation in platelet-rich plasma, agonist collagen; experiment: Collagen-induced platelet aggregation in platelet-rich plasma (aggregometer); details: collagen 5 mg/L; for IC50: Homo sapiens, Platelet
Experimental: as §1, §2, §3, §4, §5, §6, §7, §8, §9

[3] = test system: platelet aggregation in platelet-rich plasma, agonist thrombin receptor-activating peptide (TRAP); experiment: TRAP-induced platelet aggregation in platelet-rich plasma (aggregometer); details: TRAP 25 nmol/L; for IC50: Homo sapiens, Platelet
Experimental: as §1, §2, §3, §4, §5, §6, §7, §8, §9

[4] = test system: platelet aggregation in platelet-rich plasma, agonist arachidonic acid; experiment: Arachidonic acid-induced platelet aggregation in platelet-rich plasma (aggregometer); details: arachidonic acid 500 U/L; for IC50: Homo sapiens, Platelet
Experimental: as §1, §2, §3, §4, §5, §6, §7, §8, §9

[5] = Table 3, mg needed for 50% inhibition in 1 mL PRP, compounds isolated from tomato extract
[6] = Table 4, compounds from sources other than tomatoes, mg per 1 mL PRP

Row | IC50 [1, 6] [mg/mL] | IC50 [2, 6] [mg/mL] | IC50 [3, 6] [mg/mL] | IC50 [4, 6] [mg/mL] | Molecule | also measured
1 | 20.2 (≈ 119 mM) | 14.4 (≈ 84.5 mM) | 18.9 (≈ 111 mM) | 14.4 (≈ 84.9 mM) | O=C(O)c1cc(O)c(O)c(O)c1 [Gallic acid] | 
2 | 37.2 (≈ 188 mM) | 30.8 (≈ 155 mM) | 28.3 (≈ 143 mM) | 22.5 (≈ 113 mM) | COc1cc(C(=O)O)cc(OC)c1O [Syringic acid] | 
3 | 22.1 (≈ 69.6 mM) | 24.6 (≈ 77.3 mM) | 12.9 (≈ 40.6 mM) | 0.22 (≈ 0.691 mM) | O=c1c(O)c(-c2cc(O)c(O)c(O)c2)oc2cc(O)cc(O)c12 [Myricetin] | 
4 | 3.5 (≈ 13 mM) | 9.3 (≈ 34.7 mM) | > 50 |  | OC[C@H]1O[C@@H](n2cnc3c(O)ncnc32)[C@H](O)[C@@H]1O [Inosine] | 
5 | 26.1 (≈ 116 mM) | 24.9 (≈ 111 mM) | 30.4 (≈ 135 mM) | 24.8 (≈ 110 mM) | COc1cc(/C=C/C(=O)O)cc(OC)c1O [Sinapic acid] | 
6 | 26.1 (≈ 176 mM) | 8.76 (≈ 59.1 mM) | 18.2 (≈ 123 mM) | 16.1 (≈ 109 mM) | O=C(O)C=Cc1ccccc1 [Compound 22, Cinnamic acid] | IC50 [4, 5]: 0.22 mg/mL (≈ 1.48 mM)
7 | > 50 | > 50 | 26.2 (≈ 91.5 mM) | 5.18 (≈ 18.1 mM) | O=c1cc(-c2ccc(O)c(O)c2)oc2cc(O)cc(O)c12 [Luteolin] | 
8 | 32.2 (≈ 196 mM) | 28.9 (≈ 176 mM) | 17.4 (≈ 106 mM) | 9.48 (≈ 57.7 mM) | O=C(O)/C=C/c1ccccc1O [o-Coumaric acid] | 

Second part, the molecule before the results:

Row | Molecule | IC50 [1, 6] [mg/mL] | IC50 [2, 6] [mg/mL] | IC50 [3, 6] [mg/mL] | IC50 [4, 6] [mg/mL] | also measured
9 | O=c1c(O)c(-c2ccc(O)c(O)c2)oc2cc(O)cc(O)c12 [Compound 30, Quercetin] |  |  |  |  | IC50 [1, 5]: > 50 mg/mL; IC50 [2, 5]: > 50 mg/mL
10 | O=c1c(O)c(-c2ccc(O)cc2)oc2cc(O)cc(O)c12 [Compound 31, Kaempferol] |  |  |  |  | IC50 [1, 5]: > 50 mg/mL; IC50 [2, 5]: > 50 mg/mL
11 | Naringin [Compound 26] |  |  |  |  | IC50 ADP [1, 5]: 28.1 mg; IC50 Collagen [2, 5]: 29.55 mg; IC50 TRAP [3, 5]: 9.13 mg; IC50 AA [4, 5]: 0.31 mg
12 | Nc1ncnc2c1ncn2[C@@H]1O[C@H](COP(=O)(O)O)[C@@H](O)[C@H]1O [Compound 6, Adenosine 5′-monophospate] |  |  |  |  | IC50 ADP [1, 5]: 0.12 mg; IC50 Collagen [2, 5]: 0.28 mg; IC50 TRAP [3, 5]: 24.51 mg; IC50 AA [4, 5]: 2.41 mg
13 | O=C1C[C@@H](c2ccc(O)cc2)Oc2cc(O)cc(O)c21 [Compound 32, Naringenin] |  |  |  |  | IC50 [1, 5]: > 50 mg/mL; IC50 [2, 5]: > 50 mg/mL
14 | O=c1ccn([C@@H]2O[C@H](CO)[C@@H](O)[C@H]2O)c(=O)[nH]1 [Compound 3, Uridine] |  |  |  |  | IC50 [3, 5]: > 50 mg/mL
15 | O=C(O)c1ccccc1 [Compound 20, Benzoic acid] |  |  |  |  | IC50 [1, 5]: 25.1 mg/mL (≈ 206 mM); IC50 [2, 5]: 17.7 mg/mL (≈ 145 mM); IC50 [3, 5]: 18.2 mg/mL (≈ 149 mM); IC50 [4, 5]: 15.5 mg/mL (≈ 127 mM)
16 | O=C(O)c1ccc(O)c(O)c1 [Protocatechuic acid] | 30.2 (≈ 196 mM) | 23.7 (≈ 154 mM) | 30.8 (≈ 200 mM) | 25.6 (≈ 166 mM) | 
17 | C[C@@H]1O[C@@H](OC[C@H]2O[C@@H](Oc3c(-c4ccc(O)c(O)c4)oc4cc(O)cc(O)c4c3=O)[C@H](O)[C@@H](O)[C@@H]2O)[C@H](O)[C@H](O)[C@H]1O [Compound 27, Rutin] |  |  |  |  | IC50 [4, 5]: 0.41 mg/mL (≈ 0.672 mM)
18 | O=C(/C=C/c1ccc(O)c(O)c1)O[C@@H]1C[C@](O)(C(=O)O)C[C@@H](O)[C@H]1O [Compound 14, Chlorogenic acid] |  |  |  |  | IC50 [1, 5]: 10.1 mg/mL (≈ 28.4 mM); IC50 [2, 5]: 10.1 mg/mL (≈ 28.5 mM); IC50 [3, 5]: 1.1 mg/mL (≈ 3.1 mM); IC50 [4, 5]: 0.77 mg/mL (≈ 2.17 mM)
19 | Nc1nc2c(ncn2[C@@H]2O[C@H](COP(=O)(O)O)[C@@H](O)[C@H]2O)c(=O)[nH]1 [Guanosine 5′-monophosphate] | 0.1 (≈ 0.275 mM) | 0.31 (≈ 0.853 mM) | 20.1 (≈ 55.4 mM) | 0.36 (≈ 0.991 mM) | 
20 | Quercetin-3-O-glycoside [Compound 23] |  |  |  |  | IC50 ADP [1, 5]: 25.18 mg; IC50 Collagen [2, 5]: 28.43 mg; IC50 TRAP [3, 5]: 12.06 mg; IC50 AA [4, 5]: 0.19 mg
21 | Nc1ncnc2c1ncn2[C@@H]1O[C@H](CO)[C@@H](O)[C@H]1O [Compound 2, Adenosine] |  |  |  |  | IC50 [1, 5]: 0.4 mg/mL (≈ 1.5 mM); IC50 [2, 5]: 0.82 mg/mL (≈ 3.07 mM); IC50 [3, 5]: > 50 mg/mL
22 | Nc1ncnc2c1ncn2[C@@H]1O[C@H](CO)[C@@H](OP(=O)(O)O)[C@H]1O [Compound 5, Adenosine 3′-monophospate] |  |  |  |  | IC50 ADP [1, 5]: 0.12 mg; IC50 Collagen [2, 5]: 0.28 mg; IC50 TRAP [3, 5]: 24.51 mg; IC50 AA [4, 5]: 2.41 mg
23 | C[C@@H]1O[C@@H](Oc2c(-c3ccc(O)c(O)c3)oc3cc(O)cc(O)c3c2=O)[C@H](O)[C@H](O)[C@H]1O [Quercitrin] | > 50 | > 50 | 16 (≈ 35.6 mM) | 12 (≈ 26.8 mM) | 
24 | Nc1nc2c(ncn2[C@@H]2O[C@H](CO)[C@@H](O)[C@H]2O)c(=O)[nH]1 [Compound 4, Guanosine] |  |  |  |  | IC50 [1, 5]: 0.25 mg/mL (≈ 0.883 mM); IC50 [2, 5]: 0.53 mg/mL (≈ 1.87 mM); IC50 [4, 5]: 0.91 mg/mL (≈ 3.21 mM)
